Experiments:
[1] = MLM stability (Low Activity); format: in vitro ADME, CD-1 mice; settings: male, CD-1, mouse, liver microsomes, pH 7.4, Condition 1 (Low Activity), 0.50 mg protein/mL
Description: (§1) MLM Stability (Low Activity). Pooled MLM from male CD-1 mice (XenoTech M1000) were used. Microsomal incubations were carried out in multi-well plates. Liver microsomal incubation medium consisted of PBS (100 mM, pH 7.4), MgCl2 (1 mM), and NADPH (1 mM), with 0.50 mg of liver microsomal protein per mL. Control incubations were performed by replacing the NADPH-cofactor system with PBS. Test compounds (1 μM, final solvent concentration 1.0%) were incubated with microsomes at 37° C. with constant shaking. Six time points over 60 minutes were analyzed, with 60 μL aliquots of the reaction mixture being drawn at each time point. The reaction aliquots were stopped by adding 180 μL of cold (4° C.) acetonitrile containing 200 ng/mL tolbutamide and 200 ng/mL labetalol as internal standards (IS), followed by shaking for 10 minutes, and then protein sedimentation by centrifugation at 4000 rpm for 20 minutes at 4° C. Supernatant samples (80 μL) were diluted with water (240 μL) and analyzed for parent compound remaining using a fit-for-purpose liquid chromatography-tandem mass spectrometry (LC-MS/MS) method.
(§2) Data Analysis. The elimination constant (kel), half-life (t1/2) and intrinsic clearance (Clint) were determined in a plot of […] versus time, using linear regression analysis.

[2] = molecular target: T1, vesicular monoamine transporter 2 (VMAT2) (Homo sapiens, UniProt Q05940); assay: Fluorescent substrate uptake inhibition, VMAT2; format: cell-based; settings: for inhibition at 10 µM: transfected cells
T1 construct: expressed in transfected cells
T1 sequence (Q05940 whole entry, species assumed): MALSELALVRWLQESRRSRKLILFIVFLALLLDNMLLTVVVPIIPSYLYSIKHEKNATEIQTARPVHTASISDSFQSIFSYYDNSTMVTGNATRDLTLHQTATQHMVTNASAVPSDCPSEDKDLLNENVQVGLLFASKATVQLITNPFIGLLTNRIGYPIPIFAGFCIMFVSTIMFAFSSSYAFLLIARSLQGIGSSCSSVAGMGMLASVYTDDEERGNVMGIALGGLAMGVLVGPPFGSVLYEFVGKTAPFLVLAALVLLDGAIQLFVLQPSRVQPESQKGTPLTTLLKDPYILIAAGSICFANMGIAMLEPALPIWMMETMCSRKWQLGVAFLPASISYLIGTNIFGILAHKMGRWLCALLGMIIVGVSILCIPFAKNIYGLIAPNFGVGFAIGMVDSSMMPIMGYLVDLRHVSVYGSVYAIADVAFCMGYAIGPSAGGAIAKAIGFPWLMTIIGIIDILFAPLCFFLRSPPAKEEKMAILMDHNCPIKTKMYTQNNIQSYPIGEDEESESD
Description: (§3) Uptake Inhibition. The ability of test compounds to block monoamine uptake by SERT, NET, DAT, and VMAT2 was determined using the Neurotransmitter Transporter Uptake Assay Kit manufactured by Molecular Devices (Cat #R8173). Briefly, stably transfected cells expressing the MAT of interest (HEK293 cells for SERT and NET; CHO cells for DAT) were grown and plated into 384-well plates at a concentration of 20,000 cells per well. Plates were then incubated for 16-20 h at 37° C. and 5% CO2. The medium was then aspirated and replaced with 25 μL of assay buffer (20 mM HEPES in HBSS, containing 0.1% BSA) containing the test compounds at the appropriate concentrations. Plates were then centrifuged at 300 rpm for 15 s and then incubated at 37° C. for 30 minutes. At this time, 25 μL of the proprietary fluorescent dye solution was added, the plates were incubated at 37° C. for 60 minutes, and then fluorescence was quantified on a plate reader (excitation wavelength=440 nm, emission wavelength=520 nm). The proprietary dye solution contains a mixture of 1) a fluorescent dye that mimics the endogenous substrates of MATs and is thereby actively transported to the intracellular compartment in the absence of an inhibitor and 2) a masking dye that inhibits the fluorescence of dye 1 in the extracellular compartment. Therefore, the overall fluorescence of the system increases as the fluorescent dye is transported into the cells.

[3] = molecular target: T2, dopamine transporter (DAT) (Homo sapiens, UniProt Q01959); assay: Fluorescent substrate uptake inhibition, DAT; format: cell-based; settings: for inhibition at 10 µM: CHO cells expressing DAT
T2 construct: expressed in transfected cells; host or cells: CHO (uptake)
T2 sequence (Q01959 whole entry, species assumed): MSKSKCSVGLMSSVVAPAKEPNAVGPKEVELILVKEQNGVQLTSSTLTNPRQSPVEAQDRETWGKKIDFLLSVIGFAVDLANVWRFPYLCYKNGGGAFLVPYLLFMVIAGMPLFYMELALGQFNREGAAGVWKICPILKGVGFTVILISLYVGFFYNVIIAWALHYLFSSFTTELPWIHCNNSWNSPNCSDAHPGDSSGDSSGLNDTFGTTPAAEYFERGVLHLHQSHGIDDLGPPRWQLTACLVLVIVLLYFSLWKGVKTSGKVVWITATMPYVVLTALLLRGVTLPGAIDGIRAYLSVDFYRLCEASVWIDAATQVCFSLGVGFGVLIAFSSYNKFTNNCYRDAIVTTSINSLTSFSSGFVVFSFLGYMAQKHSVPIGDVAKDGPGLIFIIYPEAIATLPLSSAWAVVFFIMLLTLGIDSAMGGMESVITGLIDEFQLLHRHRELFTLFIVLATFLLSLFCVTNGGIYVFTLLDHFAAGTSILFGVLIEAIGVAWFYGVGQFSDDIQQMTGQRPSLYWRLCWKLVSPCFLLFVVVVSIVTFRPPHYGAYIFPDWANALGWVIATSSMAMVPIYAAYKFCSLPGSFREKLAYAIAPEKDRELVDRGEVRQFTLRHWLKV
Description: as §3

[4] = HLM stability (Low Activity, Alternative Method); format: in vitro ADME; settings: both sexes, human, liver microsomes, pH 7.4, Condition 1 column, values marked *: Low Activity, 0.50 mg protein/mL
Description: as §1, with “HLM” for “MLM”, “Activity, Alternative Method).” for “Activity).”, “from adult” for “from”, “and female donors (Corning 452117)” for “CD-1 mice (XenoTech M1000)”
as §2

[5] = molecular target: T3, serotonin transporter (SERT) (Homo sapiens, UniProt P31645); assay: Fluorescent substrate uptake inhibition, SERT; format: cell-based; settings: for inhibition at 10 µM: HEK293 cells expressing SERT
T3 construct: expressed in transfected cells; host or cells: HEK293
T3 sequence (P31645 whole entry, species assumed): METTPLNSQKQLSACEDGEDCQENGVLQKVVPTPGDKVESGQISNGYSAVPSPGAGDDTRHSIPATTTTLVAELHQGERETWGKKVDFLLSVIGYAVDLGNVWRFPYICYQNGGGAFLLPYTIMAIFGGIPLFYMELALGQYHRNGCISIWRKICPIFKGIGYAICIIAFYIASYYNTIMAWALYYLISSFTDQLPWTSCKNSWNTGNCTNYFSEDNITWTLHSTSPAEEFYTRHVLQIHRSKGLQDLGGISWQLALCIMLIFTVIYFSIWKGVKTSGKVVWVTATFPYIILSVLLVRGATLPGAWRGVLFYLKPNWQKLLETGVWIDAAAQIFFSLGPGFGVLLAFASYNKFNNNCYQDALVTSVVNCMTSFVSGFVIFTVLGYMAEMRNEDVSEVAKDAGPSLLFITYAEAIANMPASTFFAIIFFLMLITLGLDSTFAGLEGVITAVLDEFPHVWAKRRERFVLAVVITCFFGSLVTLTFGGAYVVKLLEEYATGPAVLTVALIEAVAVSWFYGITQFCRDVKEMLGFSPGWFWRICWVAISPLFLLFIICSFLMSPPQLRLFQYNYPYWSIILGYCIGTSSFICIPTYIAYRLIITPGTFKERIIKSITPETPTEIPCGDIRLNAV
Description: as §3

[6] = RLM stability (Low Activity); format: in vitro ADME, Sprague Dawley rats; settings: male, Sprague Dawley, rat, liver microsomes, pH 7.4, Condition 1 (Low Activity), 0.50 mg protein/mL
Description: as §1, with “RLM” for “MLM”, “Sprague Dawley rats” for “CD-1 mice”, “R1000)” for “M1000)”
as §2

[7] = molecular target: T4, norepinephrine transporter (NET) (Homo sapiens, UniProt P23975); assay: Fluorescent substrate uptake inhibition, NET; format: cell-based; settings: for inhibition at 10 µM: HEK293 cells expressing NET
T4 construct: expressed in transfected cells; host or cells: HEK293
T4 sequence (P23975 whole entry, species assumed): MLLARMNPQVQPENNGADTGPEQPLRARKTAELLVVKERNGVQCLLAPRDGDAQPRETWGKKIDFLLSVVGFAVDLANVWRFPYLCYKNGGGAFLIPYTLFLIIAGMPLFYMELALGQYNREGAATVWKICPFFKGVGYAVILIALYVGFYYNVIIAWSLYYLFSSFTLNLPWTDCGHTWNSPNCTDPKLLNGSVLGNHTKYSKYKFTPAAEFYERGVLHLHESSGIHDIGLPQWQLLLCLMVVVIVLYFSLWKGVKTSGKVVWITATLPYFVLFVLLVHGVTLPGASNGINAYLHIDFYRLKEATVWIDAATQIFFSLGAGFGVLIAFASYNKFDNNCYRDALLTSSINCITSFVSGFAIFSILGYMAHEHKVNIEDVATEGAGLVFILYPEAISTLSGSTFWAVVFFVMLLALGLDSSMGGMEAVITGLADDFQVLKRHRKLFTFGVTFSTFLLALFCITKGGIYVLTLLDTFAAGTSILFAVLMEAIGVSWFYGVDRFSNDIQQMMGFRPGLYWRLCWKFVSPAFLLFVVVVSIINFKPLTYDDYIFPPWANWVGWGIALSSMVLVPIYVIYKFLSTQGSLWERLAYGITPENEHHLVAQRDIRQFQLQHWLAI
Description: as §3

[8] = molecular target: MK-801 binding site of the N-methyl-D-aspartate receptor (NMDAR); assay: NMDAR radioligand binding with [3H]MK-801, Method B; design: species or system Sprague Dawley rat; settings: MK-801 site, Method B, male Sprague Dawley rat cortex, 5.0 nM [3H]MK-801; read-out: NMDAR Ki ± SEM
Description: Radioligand Binding—Method B. Affinity of the test compounds for NMDAR was determined in radioligand binding experiments with [^3H]MK-801 by WuXi AppTec (Hong Kong) Limited, under the conditions described in Table 13.

| Compound | half-life at 1 μM [1] [min] | microsomal CLint at 1 μM [1] [µL/min/mg] | IC50 [2] [µM] | IC50 [3] [µM] | half-life at 1 μM [4] [min] | microsomal CLint at 1 μM [4] [µL/min/mg] | IC50 [5] [µM] | half-life at 1 μM [6] [min] | microsomal CLint at 1 μM [6] [µL/min/mg] | IC50 [7] [µM] | Ki [8] [µM] | inhibition at 10 µM [2] [%] | inhibition at 10 µM [3] [%] | inhibition at 10 µM [5] [%] | inhibition at 10 µM [7] [%] |
| --- | --- | --- | --- | --- | --- | --- | --- | --- | --- | --- | --- | --- | --- | --- | --- |
| O=C1CCCC[C@]1(c1ccccc1)N1CCCC1 [Compound 27R, (R)-2-phenyl-2-(pyrrolidin-1-yl)cyclohexan-1-one] | 40.4 | 34.3 | 18.1 | 21 | > 145 | < 9.6 | 2.1 | 55.9 | 24.8 | 17.3 | 3.1 |  |  |  |  |
| COCCN[C@@]1(c2ccccc2)CCCCC1=O [Compound 29R, (R)-2-((2-methoxyethyl)amino)-2-phenylcyclohexan-1-one] | 30.1 | 46.1 |  |  | > 145 | < 9.6 |  | 32.2 | 43 |  | > 23 | -31.9 | -7.1 | 19.6 | -16 |
| NC1(c2ccc(F)cc2)CCCCC1=O (racemic) [Compound 117rac, 2-amino-2-(4-fluorophenyl)cyclohexan-1-one] | > 145 | < 9.6 |  |  | > 145 | < 9.6 |  | > 145 | < 9.6 |  | 8.4 | 17.1 | 6.8 | -0.91 | 5 |
| O=C1CCCC[C@@]1(c1ccccc1)N1CCCC1 [Compound 27S, (S)-2-phenyl-2-(pyrrolidin-1-yl)cyclohexan-1-one] | 41 | 33.8 | 19.3 | 10.9 | > 145 | < 9.6 | 0.041 | 53.7 | 25.8 | 8.5 | 1.1 |  |  |  |  |
| O=C1CCCC[C@@]1(c1ccccc1)N1CCOCC1 [Compound 31S, (S)-2-morpholino-2-phenylcyclohexan-1-one] | 10.8 | 128 |  |  | 61 | 22.7 |  | 9.6 | 144 |  | > 23 | -5.5 | 16.9 | -7.9 | 1.6 |
| CCN(CC)[C@@]1(c2ccccc2)CCCCC1=O [Compound 25R, (R)-2-(diethylamino)-2-phenylcyclohexanone] | 8.5 | 163 |  |  | 49 | 28.3 |  | 15.3 | 90.3 |  | 5.5 | -10.3 | 20.8 | 26.9 | 20.8 |
| CNC1(c2cccc(C)c2)CCCCC1=O (racemic) [Compound 23rac, 2-(methylamino)-2-(m-tolyl)cyclohexan-1-one] | 52.7 | 26.3 |  |  | 133 | 10.4 |  | 3.6 | 390 |  | 4.6 | 16 | 8.5 | -1 | 8 |
| CC1CN(C2(c3ccccc3)CCCCC2=O)C1 (racemic) [Compound 129rac, 2-(3-methylazetidin-1-yl)-2-phenyl-cyclohexan-1-one] | 9.3 | 149 |  |  | 134 | 10.4 |  | 24.1 | 57.5 |  | 0.52 | 31.9 | 35.8 | 28 | 10.6 |
| CNC1(c2ccc(C)cc2)CCCCC1=O (racemic) [Compound 119rac, 2-(methylamino)-2-(p-tolyl)cyclohexan-1-one] | 75.5 | 18.4 |  |  | > 145 | < 9.6 |  | 3.3 | 417 |  | 16.7 | 48.1 | 10.3 | 42 | 5 |
| Cc1ccc(C2(N)CCCCC2=O)cc1 (racemic) [Compound 120rac, 2-amino-2-(p-tolyl)cyclohexan-1-one] | 112 | 12.4 |  |  | > 145 | < 9.6 |  | 3.6 | 380 |  | 23 | 41 | 5.3 | 27.5 | 7.1 |
| Cc1cccc(C2(N)CCCCC2=O)c1 (racemic) [Compound 118rac, 2-amino-2-(m-tolyl)cyclohexan-1-one] | 84.4 | 16.4 |  |  | > 145 | < 9.6 |  | 7.2 | 192 |  | 4.5 | 36.6 | 23.8 | 16.9 | 19.5 |
| O=C1CCCC[C@]1(c1ccccc1)N1CCOCC1 [Compound 31R, (R)-2-morpholino-2-phenylcyclohexan-1-one] | 11.2 | 124 |  |  | 45.7 | 30.3 |  | 6.8 | 204 |  | > 23 | -3.4 | 9.8 | -1.2 | 1.3 |
